Assay [1] has as its target T1, RXFP1 (Homo sapiens, UniProt Q9HBX9).
T1 construct: expressed in transfected cells; host or cells: HEK-293T cells stably transfected with RXFP1
T1 sequence (Q9HBX9 1-757): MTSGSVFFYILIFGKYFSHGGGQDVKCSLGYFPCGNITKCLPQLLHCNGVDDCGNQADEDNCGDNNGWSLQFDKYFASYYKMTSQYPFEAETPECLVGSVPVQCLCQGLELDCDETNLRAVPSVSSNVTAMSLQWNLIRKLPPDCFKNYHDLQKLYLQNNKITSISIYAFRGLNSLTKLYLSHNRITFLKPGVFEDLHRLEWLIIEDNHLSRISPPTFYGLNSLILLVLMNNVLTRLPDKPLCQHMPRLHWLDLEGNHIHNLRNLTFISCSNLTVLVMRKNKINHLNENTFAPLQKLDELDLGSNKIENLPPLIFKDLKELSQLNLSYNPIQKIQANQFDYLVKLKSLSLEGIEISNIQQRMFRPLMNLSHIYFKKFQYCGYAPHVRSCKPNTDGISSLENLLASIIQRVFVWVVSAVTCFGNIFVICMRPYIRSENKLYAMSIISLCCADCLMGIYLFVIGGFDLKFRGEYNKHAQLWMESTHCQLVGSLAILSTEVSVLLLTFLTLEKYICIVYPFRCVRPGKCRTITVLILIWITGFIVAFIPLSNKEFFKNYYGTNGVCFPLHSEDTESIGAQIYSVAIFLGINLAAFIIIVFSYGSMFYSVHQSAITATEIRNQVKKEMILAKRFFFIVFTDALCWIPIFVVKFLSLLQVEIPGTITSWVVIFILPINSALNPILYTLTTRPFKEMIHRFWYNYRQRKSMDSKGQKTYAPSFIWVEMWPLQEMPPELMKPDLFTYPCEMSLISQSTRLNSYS
The experiment in a line: cAMP reporter gene assay in HEK-293T cells stably expressing RXFP1. To be noted: in words. Format: cell-based. On the procedure:
Stimulation of the RXFP1 receptor results in the activation of adenylate cyclase and therefore in an increase in cAMP. […] Each concentration point was performed in triplicate and peptides were tested in at least three independent experiments. Data were analyzed with GraphPad Prism 4.0 (GraphPad Software, San Diego, Calif., USA), and a nonlinear regression sigmoidal dose-response (variable slope) model was used to plot curves and calculate pEC50 values.
(In general: A reporter such as luciferase makes a cellular process visible.)

The test system of assay [2] is mice with diastolic heart failure and controls. The experiment in a line: subcutaneous infusion of relaxin in mice with diastolic dysfunction. Format: in vivo. As for the experimental part: The present inventors have therefore used an animal model for testing the treatment for DHF and of a stiffened heart muscle having insufficient relaxation and distensibility. The table below summarizes data obtained in mice with a type of diastolic heart failure as compared with controls. The subcutaneous infusion of isolated porcine relaxin over 12 weeks in mice (50 μg porcine relaxin/kg/d) decreased end-diastolic pressure and, consequently, improved E/A ratio, a functional parameter indicating the quality of ventricular filling. The subcutaneous infusion of relaxin was obtained by implanting in the neck portion of the mice a membrane capsule releasing continuously porcine relaxin.

Assay [3] relates to patients with heart failure. The settings on record: intravenous infusion, hemodynamic monitoring; cited from earlier work.
Where [4] appears, read: control mice, 50 μg/kg/d s.c. infusion, 12 weeks, mean ± SEM.
[5] abbreviates: mice with diastolic dysfunction, 50 μg/kg/d s.c. infusion, 12 weeks, mean ± SEM.

Data on 3 compounds can be found in US10799561B2, “Method for increasing cardiac inflow by administering a compound that binds RXFP1” (Relaxera Pharmazeutische Gesellschaft GmbH & Co. KG, priority 2014, dated 2020).

Entries after “also recorded” stand apart in the source; their conditions may differ. Ends that are not written are not given here.

As for `CC[C@H](C)[C@@H]1NC(=O)[C@H](C)NC(=O)[C@H]([C@@H](C)CC)NC(=O)[C@H](CCC(N)=O)NC(=O)[C@H](C)NC(=O)[C@H](CCCNC(=N)N)NC(=O)[C@H](C(C)C)NC(=O)[C@H](CC(C)C)NC(=O)[C@H](CCC(=O)O)NC(=O)[C@H](CCCNC(=N)N)NC(=O)CNC(=O)[C@@H](NC(=O)[C@H](CC(C)C)NC(=O)[C@H](CCCCN)NC(=O)[C@@H](NC(=O)[C@@H](NC(=O)[C@H](CCC(=O)O)NC(=O)[C@H](CCC(=O)O)NC(=O)[C@H](CCSC)NC(=O)[C@H](Cc2c[nH]c3ccccc23)NC(=O)[C@@H](N)CO)C(C)C)[C@@H](C)CC)CSSC[C@@H]2NC(=O)[C@@H](NC(=O)[C@H](CCCCN)NC(=O)[C@H](CC(N)=O)NC(=O)[C@H](C)NC(=O)[C@H](CC(C)C)NC(=O)[C@H](C)NC(=O)[C@H](CO)NC(=O)[C@H](Cc3ccc(O)cc3)NC(=O)[C@H](CC(C)C)NC(=O)[C@@H]3CCC(=O)N3)CSSC[C@H](NC(=O)CNC(=O)[C@H](C(C)C)NC(=O)[C@H](Cc3c[nH]cn3)NC2=O)C(=O)N[C@@H]([C@@H](C)O)C(=O)N[C@@H](CCCCN)C(=O)N[C@@H](CCCNC(=N)N)C(=O)N[C@@H](CO)C(=O)N[C@@H](CC(C)C)C(=O)N[C@@H](C)C(=O)N[C@@H](CCCNC(=N)N)C(=O)N[C@@H](Cc2ccccc2)C(=O)N[C@H](C(=O)O)CSSC[C@@H](C(=O)NCC(=O)N[C@@H](CCSC)C(=O)N[C@@H](CO)C(=O)N[C@H](C(=O)N[C@@H](Cc2c[nH]c3ccccc23)C(=O)N[C@@H](CO)C(=O)O)[C@@H](C)O)NC1=O` [-Asp-shRlx], in assay [1], the “biological activity of the by-product” value was “biologically fully active”.

For the compound “porcine relaxin (Relaxin B chain QSTNDFIKACGRELVRLWVEICGSVSWGRTAL; Relaxin A chain RMTLSEKCCQVGCIRKDIARLC; not fully specified; ends and bridges not checked; UniProt P01348 25-56; P01348 161-182, looked up) [isolated porcine relaxin, released continuously from an implanted membrane capsule]”, in assay [2] (setting [4]), the E/A ratio stood at 2.4 ± 0.2; the “LVEDP, left ventricular end-diastolic pressure” value worked out at 5.2 ± 0.5 mm Hg; the “LVSP, left ventricular systolic pressure” value was determined as 109 ± 10 mm Hg. In addition, the “effect on heart function in controls” value in assay [2] (control mice, in words) was “no pharmaceutical effects were noted”. In addition, in assay [2] (mice with diastolic dysfunction, 50 μg/kg/d s.c. over 12 weeks, in words), the E/A ratio entry was “improved; also recorded: dramatically shifted back to the normal range”. For the same compound, in assay [2] (setting [5]), the E/A ratio was found to be 2.0 ± 0.2; the “LVEDP, left ventricular end-diastolic pressure” value stood at 7.0 ± 0.6 mm Hg; the “LVSP, left ventricular systolic pressure” value is recorded as 111 ± 12 mm Hg. For the same compound, the end-diastolic pressure entry in assay [2] (mice, 50 μg/kg/d s.c. over 12 weeks, in words) is “decreased”.

On to recombinant human relaxin-2 [rhRlx], for which, in assay [3], the cardiac index result is on record as “trends toward increases” and the pulmonary wedge pressure result is reported as “decreases”.
